Experimental data published in PubChem BioAssay (NCI).
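Results reflect a 48-hour exposure of cells in 96-well plates to compound at five concentrations. The concentration for full growth arrest is given as TGI.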

Tests used:
Test in all cases: NCI anticancer screen, dose series, 48 h
MCF7 breast = system: MCF7 breast
OVCAR-5 ovarian = system: OVCAR-5 ovarian
NCI-H226 lung = system: NCI-H226 lung
HCC-2998 colon = system: HCC-2998 colon
U251 CNS = system: U251 CNS
HOP-92 NSCLC = system: HOP-92 NSCLC
NCI/ADR-RES ovarian = system: NCI/ADR-RES ovarian
SNB-75 CNS = system: SNB-75 CNS
NCI-H23 lung = system: NCI-H23 lung
CAKI-1 renal = system: CAKI-1 renal
SK-OV-3 ovarian = system: SK-OV-3 ovarian
SK-MEL-2 melanoma = system: SK-MEL-2 melanoma
A549 NSCLC = system: A549 NSCLC
LOX IMVI melanoma = system: LOX IMVI melanoma
HOP-62 NSCLC = system: HOP-62 NSCLC
MDA-MB-231 breast = system: MDA-MB-231 breast
COLO 205 colon = system: COLO 205 colon
SW-620 colon = system: SW-620 colon

SMILES	TGI (MCF7 breast) [µM]	TGI (OVCAR-5 ovarian) [µM]	TGI (NCI-H226 lung) [µM]	TGI (HCC-2998 colon) [µM]	TGI (U251 CNS) [µM]	TGI (HOP-92 NSCLC) [µM]	TGI (NCI/ADR-RES ovarian) [µM]	TGI (SNB-75 CNS) [µM]	TGI (NCI-H23 lung) [µM]	TGI (CAKI-1 renal) [µM]	TGI (SK-OV-3 ovarian) [µM]	TGI (SK-MEL-2 melanoma) [µM]	TGI (A549 NSCLC) [µM]	TGI (LOX IMVI melanoma) [µM]	TGI (HOP-62 NSCLC) [µM]	TGI (MDA-MB-231 breast) [µM]	TGI (COLO 205 colon) [µM]	TGI (SW-620 colon) [µM]
CC#CCCN(CC#N)Cc1ccccc1	44.7	> 100	> 100	> 100	> 100	> 100	> 100	> 100	> 100	> 100	> 100	> 100	> 100	> 100	> 100	> 100	> 100	–
CC(=O)OC1CC[C@]2(C)C3CC[C@@]4(C)C(CCC4[C@H](C)CCCC(C)C)[C@@H]3CCC2(Br)C1 (stereo partly specified)	23.3	> 50	> 50	> 50	> 50	> 50	> 50	> 50	36.5	25	> 50	–	> 50	29.4	> 50	38	20.9	19.3
O=C1CC(=O)N(CCc2ccccc2)S(=O)(=O)N1CCc1ccccc1	–	64.4	–	> 100	30.5	32.3	–	84.7	69.1	51.4	61	48.3	64.8	3.72	> 100	–	44.2	> 100
CN(CCCNC(=O)c1nn(-c2ccc(Cl)cc2Cl)c2c1ccc1ccccc12)CCCNC(=O)c1nn(-c2ccc(Cl)cc2Cl)c2c1ccc1ccccc12	2.9	3.57	4.86	2.91	3.07	3.52	3.26	3.18	3.26	3.05	3.49	3.09	3.11	3.2	3.31	3.23	3.71	–
O=c1cc(-c2ccc(Cl)cc2)oc2cc(OCCCOc3ccc4c(=O)cc(-c5ccc(Cl)cc5)oc4c3)ccc12	–	> 100	> 100	> 100	> 100	> 100	–	> 100	> 100	> 100	> 100	> 100	> 100	> 100	> 100	–	> 100	> 100
O=c1[nH]n(Cc2ccccn2)c2ccc([N+](=O)[O-])cc12	–	> 100	> 100	> 100	> 100	> 100	> 100	> 100	> 100	> 100	–	> 100	> 100	> 100	> 100	> 100	> 100	> 100
CC(C)C(/C=C/c1ccc(Br)cc1)=N\NC(N)=O	–	> 100	> 100	25.7	> 100	> 100	–	> 100	> 100	> 100	> 100	> 100	> 100	> 100	> 100	–	> 100	> 100
